Experiment [1] addresses T1, p53 Y220C mutant protein (amino acid residues 94-293) (Homo sapiens, UniProt P04637, Y220C).
T1 construct: p53 Y220C mutant protein (amino acid residues 94-293)
The experiment is described as follows: Thermal Shift Assay (TSA), p53 Y220C dTM. The format is binding. The method, then: […] The volume is 5 μL/well. The sealed plate is then loaded onto a QuantStudio 7 Flex instrument for melting temperature (TM) measurement. The temperature is increased from 30 °C to 50 °C, at a rate of 0.03 °C/second. Data are fit into a Boltzmann two-state model to determine the TM.

The next experiment addresses p53 Y220C (Homo sapiens, UniProt P04637, Y220C). The experiment is described as follows: Luciferase Reporter Assay, p53 Y220C (NCIH1299 cells with inducible p53 Y220C and p53 response element-luciferase). The experiment is classed as cell-based. Particulars: 6 hour compound treatment, read-out: Luc P53 Y220C AC50. The method, boiled down:
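NCI-H1299 cells stably carrying a p53 response element-luciferase reporter and Tet-inducible p53 Y220C were induced with 0.5 ug/mL doxycycline for 24 h, then treated with compound for 6 h. Luminescence was read after One-Glo addition. AC50 was derived relative to 10 uM tool compound as positive control.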

The subject of a further experiment is NUGC3 cells (p53 Y220C). As to the kind of experiment: Cell Proliferation Assay (CellTiter-Glo), NUGC3 p53 Y220C. As to conditions: Homo sapiens, NUGC-3, 120 h, 5 days, read-out: CTG NUGC3 P53 Y220C IC50. The experiment is classed as cell-based. Summed up: (§1)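 Seeded at 250–500 cells/well, then compound-treated for 5 days; the NCIH1299 lines carry Tet-One inducible p53 Y220C or R273H transduced lentivirally. Viability by CellTiter-Glo luminescence after 10 min at room temperature; IC50 calculated.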

The target of experiment [2] is T1, p53 Y220C mutant protein (amino acid residues 94-293). The experiment is described as follows: Surface Plasmon Resonance (SPR) assay, p53 Y220C Kd_kinetic. Particulars: multi-cycle kinetics, 16 or 20 °C, pH 7.5, 1:1 binding model. Summed up:
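Kd from multi-cycle SPR kinetics fitted to a 1:1 model, using 2-fold, 7-point compound series over p53 Y220C (residues 94-293). Flow 30 μL/min, 60 s association, 120 s dissociation, at 16 or 20 °C in 50 mM Tris pH 7.5, 100 mM NaCl, 1 mM DTT, 0.01% Brij35, 0.05% Tween-20, 1% DMSO.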

The subject of experiment [3] is NCIH1299-inducible p53 R273H cells. The experiment is described as follows: Cell Proliferation Assay (CellTiter-Glo), NCIH1299-inducible p53 R273H. The format is cell-based. Particulars: Homo sapiens, NCI-H1299, 120 h, 5 days, read-out: CTG H1299 P53 R273H IC50. As to the method: Inducible p53 Y220C and R273H constructs (Tet-One inducible expression system; Takara) were stably expressed in NCIH1299 cells by lentiviral transduction. NUGC3, A549, BxPC3, T3M4, HuH7, HCC2935, MFE296, NCIH1299, NCIH1299-inducible p53 Y220C, and NCIH1299-inducible p53 R273H cell lines were used for cell proliferation assay. 250-500 cells were seeded in each well of 384 plate and then compounds were dispensed into each well using Echo or Tecan. After 5 days of incubation, equal volume of CellTiter-Glo reagent (G7570; Promega) was added into each well and the plate was incubated at room temperature for 10 minutes with shaking. The luminescent signal was measured by PheraStar microplate reader and IC50 was calculated.

The subject of experiment [4] is NCIH1299-inducible p53 Y220C cells. The experiment is described as follows: Cell Proliferation Assay (CellTiter-Glo), NCIH1299-inducible p53 Y220C. The experiment is classed as cell-based. Particulars: Homo sapiens, NCI-H1299, 120 h, 5 days, read-out: CTG H1299 P53 Y220C IC50. Summed up:
as §1

Regarding `CN1CC[C@@H](Nc2cccn3c(SC(F)(F)F)c(-c4noc(CNC(=O)C5CC5)n4)nc23)[C@@H](F)C1` [Example 1, N-{[3-(8-{[(3S,4R)-3-fluoro-1-methylpiperidin-4-yl]amino}-3-[(trifluoromethyl)sulfanyl]imidazo[1,2-a]pyridin-2-yl)-1,2,4-oxadiazol-5-yl]methyl}cyclopropanecarboxamide], the ΔTm at 10 µM in experiment [1] (10 uM compound) was in the range of 5 to 10 °C. Further, the ΔTm at 100 µM in experiment [1] (100 μM compound, 3 hours at 20 °C, pH 7.4) was in the range of 5 to 10 °C. Further, on p53 Y220C, the concentration at half-maximal activity (AC50) was ≥ 3000 nM. In addition, the IC50 is ≥ 3000 nM with NUGC3 cells (p53 Y220C), ≥ 10000 nM in experiment [3] and ≥ 3000 nM in experiment [4]. Moreover, the Kd in experiment [2] lay in the range of 10 to 100 nM.
For `C[C@@H](O)CC(=O)NCc1nc(-c2cc3c(N[C@@H]4CCN(C)C[C@@H]4F)cccn3c2SC(F)(F)F)no1` [Example 63, (3R)-N-{[3-(8-{[(3S,4R)-3-fluoro-1-methylpiperidin-4-yl]amino}-3-[(trifluoromethyl)sulfanyl]indolizin-2-yl)-1,2,4-oxadiazol-5-yl]methyl}-3-hydroxybutanamide], the concentration at half-maximal activity (AC50) at p53 Y220C lay within 1500 to 3000 nM. Moreover, the values for the 50% inhibitory concentration (IC50) (in the experiment with NUGC3 cells (p53 Y220C); in experiment [4]) were 1500 to 3000 nM and ≥ 3000 nM, respectively. Moreover, the equilibrium dissociation constant (Kd) in experiment [2] is < 10 nM.
Regarding `C[C@H](O)CC(=O)NCc1nc(-c2cc3c(N[C@@H]4CCN(C)C[C@@H]4F)cccn3c2SC(F)(F)F)no1` [Example 64, (3S)—N-{[3-(8-{[(3S,4R)-3-fluoro-1-methylpiperidin-4-yl]amino}-3-[(trifluoromethyl)sulfanyl]indolizin-2-yl)-1,2,4-oxadiazol-5-yl]methyl}-3-hydroxybutanamide], at p53 Y220C, the AC50 is ≥ 3000 nM. Also, the concentration for half-maximal inhibition (IC50) (in the experiment on NUGC3 cells (p53 Y220C); in experiment [4]) was ≥ 3000 nM throughout. For the same molecule, the Kd in experiment [2] lay within 10 to 100 nM.
Take `CN1CC[C@@H](Nc2cccn3c(SC(F)(F)F)c(-c4noc(CNC(=O)CC(C)(C)O)n4)cc23)[C@@H](F)C1` [Example 65, N-{[3-(8-{[(3S,4R)-3-fluoro-1-methylpiperidin-4-yl]amino}-3-[(trifluoromethyl)sulfanyl]indolizin-2-yl)-1,2,4-oxadiazol-5-yl]methyl}-3-hydroxy-3-methylbutanamide]: the half-maximal activity concentration (AC50) on p53 Y220C was ≥ 3000 nM. Further, the IC50 (in the experiment with NUGC3 cells (p53 Y220C); in experiment [4]) was ≥ 3000 nM each time. In experiment [2], this molecule returned a dissociation constant (Kd) of 10 to 100 nM.
On to `CN1CC[C@@H](Nc2cccn3c(SC(F)(F)F)c(-c4noc(CNC(=O)c5cnc(N6CCOCC6)o5)n4)cc23)[C@@H](F)C1` [Example 66, N-{[3-(8-{[(3S,4R)-3-fluoro-1-methylpiperidin-4-yl]amino}-3-[(trifluoromethyl)sulfanyl]indolizin-2-yl)-1,2,4-oxadiazol-5-yl]methyl}-2-(morpholin-4-yl)-1,3-oxazole-5-carboxamide], for which, on p53 Y220C, the AC50 was < 750 nM. For the same molecule, the IC50 (with NUGC3 cells (p53 Y220C); in experiment [4]) was < 750 nM in each case. In addition, in experiment [2], the equilibrium dissociation constant (Kd) is < 10 nM.
On to `CN1CC[C@@H](Nc2cccn3c(SC(F)(F)F)c(-c4noc(CNC(=O)N5CCOCC5)n4)cc23)[C@@H](F)C1` [Example 67, N-{[3-(8-{[(3S,4R)-3-fluoro-1-methylpiperidin-4-yl]amino}-3-[(trifluoromethyl)sulfanyl]indolizin-2-yl)-1,2,4-oxadiazol-5-yl]methyl}morpholine-4-carboxamide], for which the AC50 at p53 Y220C lay in the range of 750 to 1500 nM. Also, the IC50 in the experiment on NUGC3 cells (p53 Y220C) lay in the range of 1500 to 3000 nM; in experiment [4], 750 to 1500 nM. Also, in experiment [2], the dissociation constant Kd was < 10 nM.

These data come from patent US20260347353A1, “INDOLIZINE DERIVATIVES FOR TREATING CANCER” (Antares Therapeutics, Inc., priority 2022, published 2026).
